According to PubChem BioAssay (NCI):
Structures can show the parent of a compound that is named as a salt.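 Five concentrations, 48 hours, 96-well plates. TGI denotes the concentration required for complete inhibition of growth.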 *1 amine or outer side, *2 acyl side, *3 side chain or, on linkers, in order; H or OH if unused. Where a SMILES comes first, the peptide text is derived from it. [ ]: non-standard residue; d: D form. The star is where a group is joined. X31 = CC(=O)N(C)SCC(N[*:1])C(=O)[*:2]; X47 = CC(=O)N(C)SCC(N*)/C(O)=N\O; Cbz = O=C(OCc1ccccc1)*; Tfa = O=C(C(F)(F)F)*; Bn = c1ccc(C*)cc1; For = O=C*

What was measured:
Assay in all cases: NCI anticancer screen, dose series, 48 h
OVCAR-5 ovarian = tested on: OVCAR-5 ovarian
SK-OV-3 ovarian = tested on: SK-OV-3 ovarian
COLO 205 colon = tested on: COLO 205 colon
MDA-MB-435 = tested on: MDA-MB-435
MDA-N = tested on: MDA-N
UO-31 renal = tested on: UO-31 renal
EKVX NSCLC = tested on: EKVX NSCLC
RPMI-8226 leukemia = tested on: RPMI-8226 leukemia
PC-3 prostate = tested on: PC-3 prostate
BT-549 breast = tested on: BT-549 breast
MALME-3M melanoma = tested on: MALME-3M melanoma

Structure (SMILES) | TGI (OVCAR-5 ovarian) [µM] | TGI (SK-OV-3 ovarian) [µM] | TGI (COLO 205 colon) [µM] | TGI (MDA-MB-435) [µM] | TGI (MDA-N) [µM] | TGI (UO-31 renal) [µM] | TGI (EKVX NSCLC) [µM] | TGI (RPMI-8226 leukemia) [µM] | TGI (PC-3 prostate) [µM] | TGI (BT-549 breast) [µM] | TGI (MALME-3M melanoma) [µM]
CC(=O)[C@@H]1[C@@H](OC(=O)CCC(C)COC2OC(CO)C(O)C(O)C2O)C[C@H]2[C@@H]3CC=C4C[C@@H](OC5OC(CO)C(OC6OC(C)C(O)C(O)C6O)C(O)C5OC5OC(C)C(O)C(O)C5O)CC[C@]4(C)[C@H]3CC[C@]12C (some centres not stated) | > 100 | > 100 | > 100 | > 100 | > 100 | > 100 | > 100 | > 100 | > 100 | > 100 | > 100
O=C(Nn1c(-c2ccccc2)nc2ccccc2c1=O)c1ccc(CS)cc1 | > 100 | > 100 | > 100 | > 100 | > 100 | > 100 | > 100 | > 100 | > 100 | 52.8 | > 100
C/C(CC/C(C)=N/O)=N\O | > 100 | > 100 | > 100 | > 100 | > 100 | > 100 | > 100 | > 100 | > 100 | > 100 | > 100
COc1ccc(/C=C2\CCCC(CN(C)C)C2=O)cc1 (configuration not stated) | 23.2 | 23.4 | 4.45 | 6.96 | 8.5 | 8.57 | 24.8 | 0.433 | 18.4 | 3.9 | 6.95
CO/N=C(\C)c1ccc(Nc2c3ccccc3nc3occc23)cc1 | 32.2 | 17.2 | 6.37 | 0.224 | 0.379 | 25.1 | 39.9 | 12.1 | 49.3 | 21.3 | 0.895
O=P1(C(O)/C=C/c2ccccc2)N(Cc2ccccc2)[C@H](c2ccccc2)[C@@H](c2ccccc2)N1Cc1ccccc1 (some centres not stated) | > 100 | > 81.8 | 31.8 | > 93.3 | > 100 | 98.3 | > 96.1 | 30.1 | > 94.7 | > 89.4 | 99.7
CC(=O)N(C)SCC(NC(=O)C(Cc1ccccc1)NC(=O)OCc1ccccc1)C(=O)NC(Cc1ccccc1)C(=O)NC(Cc1cn(C=O)c2ccccc12)C(=O)NC(CCCCNC(=O)OCc1ccccc1)C(=O)NC(C(=O)NC(CSN(C)C(C)=O)/C(O)=N\O)C(C)OCc1ccccc1 (configuration not stated) (Cbz-F[X31]FW(For)K(Cbz)T(Bn)-X47; configuration not given here) | > 100 | > 100 | > 100 | > 100 | > 100 | > 100 | > 100 | > 100 | > 100 | > 100 | > 100
CCOC(=O)C1(C(N)=O)C(=O)c2ccncc2C1=O (configuration not stated) | > 100 | > 100 | > 100 | > 100 | > 100 | > 100 | > 100 | > 100 | > 100 | > 100 | > 100
C/C=C/[C@H]1O[C@@](O)([C@@H](C)[C@H](O)[C@H](C)[C@H]2OC(=O)/C(OC)=C/C(C)=C/[C@@H](C)[C@@H](O)[C@@H](CC)[C@@H](O)[C@H](C)C/C(C)=C/C=C/[C@@H]2OC)C[C@H](OC2CC(O)C(O)C(C)O2)[C@@H]1C (some centres not stated) | 15.1 | 16.9 | 3.96 | 8.87 | 12.2 | 0.29 | 11.8 | < 0.0075 | 9.48 | 14.1 | 0.907
CC(C)(C)OC(=O)NCCCCC(N)C(N)=O (configuration not stated) | > 100 | > 100 | > 100 | > 100 | > 100 | > 100 | > 100 | > 100 | > 100 | > 100 | > 100
NC(Cc1ccc(S(=O)(=O)O)cc1)C(=O)NC(CCCCNC(=O)NCCCCC(NC(=O)C(N)Cc1ccc(S(=O)(=O)O)cc1)C(=O)NC(Cc1ccc(S(=O)(=O)O)cc1)C(=O)O)C(=O)NC(Cc1ccc(S(=O)(=O)O)cc1)C(=O)O (configuration not stated) | > 100 | > 100 | > 100 | > 100 | > 100 | > 100 | > 100 | > 100 | > 100 | > 100 | > 100
CCCCCCCC1C(C)c2c([nH]c3ccccc23)C2C(=O)N(c3ccc(OC)cc3)C(=O)C21 (configuration not stated) | > 10 | > 10 | > 10 | > 8.39 | > 10 | 6.86 | > 10 | > 10 | > 10 | 6.56 | > 10
Brc1ccc2[nH]cc(-c3csc(-c4ccccn4)n3)c2c1 | > 100 | > 100 | > 56.3 | > 100 | > 100 | > 100 | 48.2 | 63.7 | 51.7 | > 100 | 65.2
COc1cc2c[n+](C)c3c4cc(OC)c(OC)cc4c(OC)cc3c2cc1OC | > 100 | > 100 | 4.41 | > 60.4 | > 45.9 | > 100 | > 100 | > 100 | 98.9 | 57 | 9.44
COc1cc(C=O)ccc1Oc1nnnn1-c1ccccc1 | > 100 | > 100 | > 100 | > 100 | > 100 | > 100 | > 100 | 98.2 | > 100 | > 100 | > 100
CCOC(=O)c1ccc(Nc2cnc3cc(C(F)(F)F)ccc3n2)cc1 | > 100 | > 100 | > 100 | > 100 | > 100 | > 100 | > 100 | > 100 | > 100 | > 100 | > 100
O=C(/C=C1\N=C(c2ccccc2)N(c2nc3ccc(Sc4ccccc4)cc3[nH]2)C1=O)/C=C/c1ccccc1 | > 100 | > 100 | 30.6 | 33.9 | 33.6 | > 100 | > 100 | 60.9 | > 100 | > 100 | > 100
O=c1sc2c(s1)SSSSS2 | > 50 | > 50 | > 50 | > 50 | > 50 | > 50 | > 50 | > 50 | > 50 | > 50 | > 50
C=CCN1CCC(OC(=O)C(O)(C#CC)C2CCCC2)CC1 (configuration not stated) | > 100 | > 100 | > 100 | > 100 | > 100 | > 100 | > 100 | > 100 | > 100 | > 100 | > 100
Cc1c(NC(=S)NN)c(=O)n(-c2ccccc2)n1C | > 100 | > 100 | > 100 | > 100 | > 100 | > 100 | > 100 | > 100 | > 100 | > 100 | > 100
O=C(O)CC(NC(=O)C(F)(F)F)C(=O)NC(Cc1ccc(O)cc1)C(=O)O (stereo not drawn) (Tfa-Asp-Tyr-OH; configuration not given here) | > 50 | > 50 | > 50 | > 50 | > 50 | > 50 | > 50 | > 50 | > 50 | > 50 | > 50
O=c1cc(NCCCCCO)[nH]c(=O)[nH]1 | > 100 | > 100 | > 100 | > 100 | > 100 | > 100 | > 100 | > 100 | > 100 | > 100 | > 100
CS(=O)(=O)c1ccc(/C=N/NC(N)=S)cc1 | > 100 | > 100 | > 100 | > 100 | > 100 | > 100 | > 100 | > 100 | > 100 | > 100 | > 100
O=C(O)c1ccccc1NC(c1ccccc1)c1ccc2cccnc2c1O (configuration not stated) | 58 | > 100 | 80.9 | > 66.9 | > 100 | 23.8 | > 47.5 | 16.9 | > 88.8 | 45.1 | > 56.4
CC(=O)OC1=c2ccccc2=C(O)C2C1C=NN2C(C)=O (configuration not stated) | > 100 | > 100 | > 100 | > 100 | > 100 | > 100 | > 100 | > 100 | > 100 | > 100 | > 100
Cc1ccc(-c2nc(C)c(C(=O)Nc3ccc(Cl)cc3)s2)cc1 | > 100 | 45.2 | > 100 | > 100 | > 100 | 49.3 | > 100 | > 100 | > 100 | 78.2 | > 100
Cc1c2c(c(C)n1-c1ccccc1)C(=O)N(CCCCN1CCN(c3ccccc3)CC1)C2=O | > 100 | > 100 | 21.7 | 40.8 | 31.2 | 24.8 | 65.7 | 47.3 | 39.5 | 49.3 | 20.9
